Key:
barnyardgrass [1] = assay: Test Example 7, flooded paddy pot dripping, herbicidal activity; type: in vivo, Echinochloa crus-galli; details: 3 weeks; also: ranges in brackets are in %
Method: (§1) The application of the tetrahydrophthalimides (I) as herbicides will be illustratively shown in the following Examples wherein the phytotoxicity to cultivated plants and the herbicidal activity on weeds were evaluated as follows: the aerial parts of the test plants were cut off and weighed (fresh weight); the percentage of the fresh weight of the treated plant to that of the untreated plant was calculated with the latter fresh weight taken as 100; and the crop damage and the herbicidal activity were evaluated by the standard given in the table below. The rating values of phytotoxicity, 0 and 1, and those of herbicidal effect, 5 and 4, are generally regarded as satisfactory to protect cultivated plants and control weeds, respectively. The rating values in the paddy field test alone were calculated from the dry weight of the test plants.
(§2) Wagner's pots (1/5000 are) were filled with paddy field soil and water was poured therein to make a flooded condition. Rice seedlings of the 3-leaf stage were transplanted and tubers of slender spikerush and arrowhead and the seeds of barnyardgrass, monochoria and broad-leaved weed were sowed therein and grown for 5 days. When germination occurs, a designed amount of the test compound formulated into an emulsifiable concentrate according to Preparation Example 2 was applied to the pots by dripping. The test plants were grown for a further 3 weeks, and herbicidal activity and phytotoxicity were examined. The herbicidal activity was evaluated in figures ranging from 0 to 5. The phytotoxicity to the crop plants was also indicated on the same standard as that of the herbicidal activity.

broad-leaved weed = assay: as above; type: in vivo; details: 3 weeks; also: ranges in brackets are in %
Method: as §1, §2

tall morningglory [2] = assay: Test Example 2, field foliar treatment, herbicidal activity; type: in vivo, Ipomoea purpurea; details: 3 weeks; also: ranges in brackets are in %
Method: as §1
(§3) Seeds of corn and broad-leaved weeds such as cocklebur, common purslane and tall morningglory were sown in the field as previously laid up in ridges, each ridge having an upper width of 1 m. At the time when the corn grew up to the 6-leaf stage and the broad-leaved weeds up to 2 to 5-leaf stages, a designed amount of the test compound formulated into an emulsifiable concentrate according to Preparation Example 2 and dispersed in water was sprayed to the foliage of the test plants with three replications over the top by means of a small hand sprayer at a spray volume of 5 liters per are. After cultivation for 3 weeks, herbicidal activity and phytotoxicity were examined.

slender spikerush = assay: Test Example 7, flooded paddy pot dripping, herbicidal activity; type: in vivo, Eleocharis acicularis; details: 3 weeks; also: ranges in brackets are in %
Method: as §1, §2

arrowhead = assay: as above; type: in vivo, Sagittaria pygmaea; details: 3 weeks; also: ranges in brackets are in %
Method: as §1, §2

common purslane = assay: Test Example 2, field foliar treatment, herbicidal activity; type: in vivo, Portulaca oleracea; details: 3 weeks; also: ranges in brackets are in %
Method: as §1, §3

corn [3] = assay: Test Example 2, field foliar treatment, phytotoxicity to corn; type: in vivo; details: 3 weeks; also: ranges in brackets are in %
Method: as §1, §3

rice plant = assay: Test Example 7, flooded paddy pot dripping, phytotoxicity to rice plant; type: in vivo; details: 3 weeks; also: ranges in brackets are in %
Method: as §1, §2

cocklebur = assay: Test Example 2, field foliar treatment, herbicidal activity; type: in vivo, Xanthium pennsylvanicum; details: 3 weeks; also: ranges in brackets are in %
Method: as §1, §3

monochoria = assay: Test Example 7, flooded paddy pot dripping, herbicidal activity; type: in vivo, Monochoria vaginalis; details: 3 weeks; also: ranges in brackets are in %
Method: as §1, §2

wild oat = assay: Test Example 1, foliar treatment, herbicidal activity; type: in vivo, Avena fatua; details: 3 weeks; also: ranges in brackets are in %
Method: as §1
(§4) Plastic beakers (diameter, 10 cm; height, 10 cm) were filled with upland field soil, and the seeds of corn, barnyardgrass, wild oat, wild mustard and velvetleaf were separately sown in the beakers and grown for 2 weeks in the greenhouse. A designed amount of the test compound was sprayed to the foliage of the test plants by means of a small hand sprayer. After the spraying, the test plants were further grown for 3 weeks in the greenhouse, and herbicidal activity was examined. In this foliar treatment, the test compounds were formulated into an emulsifiable concentrate according to Preparation Example 2 and applied at a spray volume of 5 liters per are by dispersing it in water with the addition of a spreading agent.

sicklepod = assay: Test Example 5, spraying over the top, herbicidal activity; type: in vivo, Cassia obtusifolia; details: sprayed over the top, 20 days; also: ranges in brackets are in %
Method: as §1
(§5) Plastic trays (35 cm×25 cm×15 cm) were filled with upland field soil, and the seeds of tall morningglory, velvetleaf, jimsonweed, sicklepod, hemp sesbania, prickly side, Johnsongrass, green foxtail and large crabgrass and the seeds of soybean were sown therein. A designed amount of the test compound formulated into a wettable powder according to Preparation Example 1 and dispersed in water was sprayed over the top by means of a small hand sprayer at a spray volume of 5 liters per are. After the spraying, the test plants were grown in greenhouse for 20 days, and phytotoxicity and herbicidal activity were examined.

wild mustard = assay: Test Example 1, foliar treatment, herbicidal activity; type: in vivo, Brassica kaber; details: 3 weeks
Method: as §1, §4

tall morningglory [4] = assay: Test Example 5, spraying over the top, herbicidal activity; type: in vivo, Ipomoea purpurea; details: sprayed over the top, 20 days; also: ranges in brackets are in %
Method: as §1, §5

jimsonweed = assay: as above; type: in vivo, Datura stramonium; details: sprayed over the top, 20 days; also: ranges in brackets are in %
Method: as §1, §5

corn [5] = assay: Test Example 4, pre-emergence treatment, phytotoxicity to corn; type: in vivo; details: 20 days; also: ranges in brackets are in %
Method: as §1
(§6) Plastic beakers (diameter, 10 cm; height, 10 cm) were filled with upland field soil, and the seeds of corn, cotton and soybean and the seeds of morningglory, velvetleaf, Johnsongrass and green foxtail were separately sown in the beakers. A designed amount of the test compound was sprayed over the top by means of a small hand sprayer. After the spraying, the test plants were grown for 20 days in the greenhouse, and herbicidal activity and phytotoxicity were examined. In this pre-emergence treatment, the test compounds were formulated into an emulsifiable concentrate according to Preparation Example 2 and applied at a spray volume of 5 liters per are by dispersing it in water with the addition of a spreading agent.

soybean [6] = assay: Test Example 4, pre-emergence treatment, phytotoxicity to soybean; type: in vivo; details: 20 days; also: ranges in brackets are in %
Method: as §1, §6

velvetleaf [7] = assay: Test Example 5, spraying over the top, herbicidal activity; type: in vivo, Abutilon theophrasti; details: sprayed over the top, 20 days; also: ranges in brackets are in %
Method: as §1, §5

barnyardgrass [8] = assay: Test Example 1, foliar treatment, herbicidal activity; type: in vivo, Echinochloa crus-galli; details: 3 weeks; also: ranges in brackets are in %
Method: as §1, §4

soybean [9] = assay: Test Example 5, spraying over the top, phytotoxicity to soybean; type: in vivo; details: sprayed over the top, 20 days; also: ranges in brackets are in %
Method: as §1, §5

velvetleaf [10] = assay: Test Example 1, foliar treatment, herbicidal activity; type: in vivo, Abutilon theophrasti; details: 3 weeks; also: ranges in brackets are in %
Method: as §1, §4

prickly sida = assay: Test Example 5, spraying over the top, herbicidal activity; type: in vivo, Sida spinosa; details: sprayed over the top, 20 days; also: ranges in brackets are in %
Method: as §1, §5

Johnsongrass [11] = assay: as above; type: in vivo, Sorghum halepense; details: sprayed over the top, 20 days
Method: as §1, §5

large crabgrass = assay: as above; type: in vivo, Digitaria sanguinalis; details: sprayed over the top, 20 days; also: ranges in brackets are in %
Method: as §1, §5

Johnsongrass [12] = assay: Test Example 4, pre-emergence treatment, herbicidal activity; type: in vivo, Sorghum halepense; details: 20 days; also: ranges in brackets are in %
Method: as §1, §6

green foxtail [13] = assay: as above; type: in vivo, Setaria viridis; details: 20 days
Method: as §1, §6

cotton = assay: Test Example 4, pre-emergence treatment, phytotoxicity to cotton; type: in vivo; details: 2.5 g/are, 20 days; also: ranges in brackets are in %
Method: as §1, §6

velvetleaf [14] = assay: Test Example 4, pre-emergence treatment, herbicidal activity; type: in vivo, Abutilon theophrasti; details: 20 days; also: ranges in brackets are in %
Method: as §1, §6

green foxtail [15] = assay: Test Example 5, spraying over the top, herbicidal activity; type: in vivo, Setaria viridis; details: sprayed over the top, 20 days; also: ranges in brackets are in %
Method: as §1, §5

corn [16] = assay: Test Example 1, foliar treatment, phytotoxicity to corn; type: in vivo; details: 3 weeks; also: ranges in brackets are in %
Method: as §1, §4

morningglory = assay: Test Example 4, pre-emergence treatment, herbicidal activity; type: in vivo; details: 10 g/are, 20 days; also: ranges in brackets are in %
Method: as §1, §6

hemp sesbania = assay: Test Example 5, spraying over the top, herbicidal activity; type: in vivo, Sesbania exaltator; details: sprayed over the top, 20 days; also: ranges in brackets are in %
Method: as §1, §5
For Herbicidal activity, Green foxtail in this document: ranges in brackets are in %.

CCCCCOc1cc(N2C(=O)C3=C(CCCC3)C2=O)c(F)cc1Cl [Compound No. 7, N-(4-chloro-2-fluoro-5-n-amyloxyphenyl)-3,4,5,6-terahydrophthalimide]
5 (0): Herbicidal activity, Common purslane (common purslane; 0.16 g/are) | Herbicidal activity, Common purslane (common purslane; 0.32 g/are) | Herbicidal activity, Common purslane (common purslane; 0.63 g/are) | Herbicidal activity, Cocklebur (cocklebur; 0.63 g/are)
0 (100): Phytotoxicity, Corn (corn [3]; 0.16 g/are) | Phytotoxicity, Corn (corn [3]; 0.32 g/are) | Phytotoxicity, Corn (corn [3]; 0.63 g/are)
5 (90-100): Herbicidal activity, Barnyardgrass (barnyardgrass [1]; 2.5 g/are) | Herbicidal activity, Barnyardgrass (barnyardgrass [1]; 5 g/are) | Herbicidal activity, Broad-leaved weed (broad-leaved weed; 1.25 g/are) | Herbicidal activity, Broad-leaved weed (broad-leaved weed; 2.5 g/are) | Herbicidal activity, Broad-leaved weed (broad-leaved weed; 5 g/are) | Herbicidal activity, Slender spikerush (slender spikerush; 2.5 g/are) | Herbicidal activity, Slender spikerush (slender spikerush; 5 g/are) | Herbicidal activity, Allowhead (arrowhead; 5 g/are) | Herbicidal activity, Monochoria (monochoria; 1.25 g/are) | Herbicidal activity, Monochoria (monochoria; 2.5 g/are) | Herbicidal activity, Monochoria (monochoria; 5 g/are)
0 (0-9): Phytotoxicity, Rice plant (rice plant; 1.25 g/are) | Phytotoxicity, Rice plant (rice plant; 2.5 g/are) | Phytotoxicity, Rice plant (rice plant; 5 g/are)
3 (11-20): Herbicidal activity, Tall morningglory (tall morningglory [2]; 0.32 g/are)
3 (50-69): Herbicidal activity, Allowhead (arrowhead; 1.25 g/are)
4 (70-89): Herbicidal activity, Barnyardgrass (barnyardgrass [1]; 1.25 g/are) | Herbicidal activity, Slender spikerush (slender spikerush; 1.25 g/are) | Herbicidal activity, Allowhead (arrowhead; 2.5 g/are)
2 (21-40): Herbicidal activity, Tall morningglory (tall morningglory [2]; 0.16 g/are)
4 (1-10): Herbicidal activity, Tall morningglory (tall morningglory [2]; 0.63 g/are) | Herbicidal activity, Cocklebur (cocklebur; 0.16 g/are) | Herbicidal activity, Cocklebur (cocklebur; 0.32 g/are)

COc1cc(N2C(=O)C3=C(CCCC3)C2=O)c(F)cc1Br [Compound No. 12, N-(4-bromo-2-fluoro-5-methoxyphenyl)-3,4,5,6-tetrahydrophthalimide]
1 (90-99): Phytotoxicity, Corn (corn [5]; 10 g/are) | Phytotoxicity, Corn (corn [16]; 1.25 g/are) | Phytotoxicity, Corn (corn [16]; 5 g/are)
4 (1-10): Herbicidal activity, Sicklepod (sicklepod; 3 g/are) | Herbicidal activity, Wild mustard (wild mustard; 1.25 g/are) | Herbicidal activity, Tall morningglory (tall morningglory [4]; 3 g/are) | Herbicidal activity, Hemp sesbania (hemp sesbania; 3 g/are)
5 (0): Herbicidal activity, Wild cat (wild oat; 5 g/are) | Herbicidal activity, Sicklepod (sicklepod; 9 g/are) | Herbicidal activity, Wild mustard (wild mustard; 5 g/are) | Herbicidal activity, Tall morningglory (tall morningglory [4]; 9 g/are) | Herbicidal activity, Jimsonweed (jimsonweed; 3 g/are) | Herbicidal activity, Jimsonweed (jimsonweed; 9 g/are) | Herbicidal activity, Velvetleaf (velvetleaf [7]; 3 g/are) | Herbicidal activity, Velvetleaf (velvetleaf [7]; 9 g/are) | Herbicidal activity, Barnyardgrass (barnyardgrass [8]; 5 g/are) | Herbicidal activity, Velvetleaf (velvetleaf [10]; 1.25 g/are) | Herbicidal activity, Velvetleaf (velvetleaf [10]; 5 g/are) | Herbicidal activity, Prickly sida (prickly sida; 3 g/are) | Herbicidal activity, Prickly sida (prickly sida; 9 g/are) | Herbicidal activity, Johnsongrass (Johnsongrass [11]; 3 g/are) | Herbicidal activity, Johnsongrass (Johnsongrass [11]; 9 g/are) | Herbicidal activity, Large crabgrass (large crabgrass; 3 g/are) | Herbicidal activity, Large crabgrass (large crabgrass; 9 g/are) | Herbicidal activity, Johnsongrass (Johnsongrass [12]; 2.5 g/are) | Herbicidal activity, Johnsongrass (Johnsongrass [12]; 10 g/are) | Herbicidal activity, Green foxtail (green foxtail [13]; 2.5 g/are) | Herbicidal activity, Green foxtail (green foxtail [13]; 10 g/are) | Herbicidal activity, Velvetleaf (velvetleaf [14]; 2.5 g/are) | Herbicidal activity, Velvetleaf (velvetleaf [14]; 10 g/are) | Herbicidal activity, Green foxtail (green foxtail [15]; 3 g/are) | Herbicidal activity, Green foxtail (green foxtail [15]; 9 g/are) | Herbicidal activity, Morningglory (morningglory) | Herbicidal activity, Hemp sesbania (hemp sesbania; 9 g/are)
1 (41-60): Herbicidal activity, Wild cat (wild oat; 1.25 g/are)
0 (100): Phytotoxicity, Corn (corn [5]; 2.5 g/are) | Phytotoxicity, Soybean (soybean [6]; 2.5 g/are) | Phytotoxicity, Soybean (soybean [6]; 10 g/are) | Phytotoxicity, Soybean (soybean [9]; 3 g/are) | Phytotoxicity, Soybean (soybean [9]; 9 g/are) | Phytotoxicity, Cotton (cotton)
2 (21-40): Herbicidal activity, Barnyardgrass (barnyardgrass [8]; 1.25 g/are)
